One test has as its target T1, IDH2 R172K (Homo sapiens, UniProt P48735, R172K).
T1 sequence (P48735 40-452 R172K): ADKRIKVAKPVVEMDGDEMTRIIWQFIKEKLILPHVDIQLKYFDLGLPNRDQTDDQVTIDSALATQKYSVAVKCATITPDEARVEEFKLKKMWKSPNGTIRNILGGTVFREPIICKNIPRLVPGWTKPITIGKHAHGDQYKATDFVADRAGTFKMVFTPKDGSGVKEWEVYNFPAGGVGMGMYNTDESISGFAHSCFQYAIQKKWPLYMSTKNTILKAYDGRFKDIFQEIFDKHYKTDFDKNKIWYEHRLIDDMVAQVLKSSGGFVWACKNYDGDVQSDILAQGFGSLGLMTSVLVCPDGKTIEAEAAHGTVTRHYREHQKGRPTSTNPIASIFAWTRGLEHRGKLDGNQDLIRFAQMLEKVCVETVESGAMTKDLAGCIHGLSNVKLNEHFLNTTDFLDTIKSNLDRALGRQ
As to the kind of experiment: IDH2 R172K enzymatic assay (NADPH cofactor depletion, diaphorase/resazurin readout). The test is classed as biochemical. As to conditions: read-out: Enz R172K. Summed up: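 Residual NADPH is read out as resorufin fluorescence after quenching with 36 μg/ml diaphorase and 60 μM resazurin in stop mix. The stop follows a 1 h room-temperature reaction started by a substrate mix of NADPH (50 μM) and α-KG (6.3 mM), with compound preincubated with enzyme for 1 h beforehand.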
(In general: The colour change of resazurin is a common sign of viable cells or microbes.)

In another test the target is T2, IDH2 R140Q (Homo sapiens, UniProt P48735, R140Q).
T2 sequence (P48735 40-452 R140Q): T1 sequence (P48735 40-452 R172K) with R101Q, K133R
In words: IDH2 R140Q enzymatic assay (cofactor depletion, similar format). The test is classed as biochemical. As to conditions: read-out: Enz R140Q.

Test [1] concerns U87MG pLVX-IDH2 R140Q-neo cells. In words: U87MG pLVX-IDH2 R140Q-neo cell based assay, 2-HG in media by LC-MS at 48 hours. As to conditions: Homo sapiens, U-87 MG. Summed up: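 2-HG secreted into the medium was measured by LC-MS after 48 h of compound treatment (0.2% DMSO final) of U87MG pLVX-IDH2 R140Q-neo cells in DMEM/10% FBS. The same wells were assayed at 72 h by CellTiter-Glo luminescence for effects on growth.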

Molecules are shown by their SMILES. Where a chain is given by its changes, count along the chain named. Bounds are passed on as bounds.

This is an account of results in patent US9512107B2, “Therapeutically active compositions and their methods of use” (Agios Pharmaceuticals, Inc., priority 2012, dated 2016).

For `CC(C)CNc1nc(Nc2cccc(S(C)(=O)=O)c2)nc(-c2cccc(C(F)(F)F)n2)n1` [Compound 571, N2-isobutyl-N4-(3-(methylsulfonyl)phenyl)-6-(6-(trifluoromethyl)pyridin-2-yl)-1,3,5-triazine-2,4-diamine], the figures for the IC50 (at IDH2 R172K; at IDH2 R140Q; in test [1]) were 0.1 to 1 µM, 0.1 to 1 µM and less than 0.1 µM, respectively.
For the compound `c1ccc(Nc2nc(NC3CCOCC3)nc(-c3ccccc3)n2)cc1` [Compound 168], the IC50 at IDH2 R172K is 0.1 to 1 µM; at IDH2 R140Q it was less than 0.1 µM; in test [1] it was less than 0.1 µM.
For the compound `CC(C)(C)Nc1nc(Nc2ccnc(C(F)(F)F)c2)nc(-c2cccc(C(F)(F)F)n2)n1` [Compound 602, N2-(tert-butyl)-6-(6-(trifluoromethyl)pyridin-2-yl)-N4-(2-(trifluoromethyl)pyridin-4-yl)-1,3,5-triazine-2,4-diamine], the IC50 is less than 0.1 µM at IDH2 R172K, 0.1 to 1 µM on IDH2 R140Q and less than 0.1 µM in test [1].
`c1ccc(-c2nc(Nc3ccncc3)nc(NC3CCCC3)n2)cc1` [Compound 187]: the IC50 on IDH2 R172K is 0.1 to 1 µM; on IDH2 R140Q it was less than 0.1 µM; in test [1] it was less than 0.1 µM.
As for `CC(C)Nc1nc(Nc2ccnc(C(C)(F)F)c2)nc(-c2cccc(C(C)(F)F)n2)n1` [Compound 576, 6-[6-(1,1-Difluoro-ethyl)-pyridin-2-yl]-N-[2-(1,1-difluoro-ethyl)-pyridin-4-yl]-N′-isopropyl-[1,3,5]triazine-2,4-diamine], the IC50 on IDH2 R172K is 0.1 to 1 µM; on IDH2 R140Q, 0.1 to 1 µM; in test [1] it was less than 0.1 µM.
With `CC(C)Nc1nc(Nc2cc(F)cc(F)c2)nc(-c2nc(N)ccc2F)n1` [Compound 477, 6-(6-amino-3-fluoropyridin-2-yl)-N2-(3,5-difluorophenyl)-N4-isopropyl-1,3,5-triazine-2,4-diamine], the values for the IC50 (on IDH2 R172K; on IDH2 R140Q; in test [1]) were less than 0.1 µM, 0.1 to 1 µM and less than 0.1 µM, respectively.
With `CC(C)(CO)CNc1nc(Nc2ccnc(Cl)c2)nc(-c2ccccc2)n1` [Compound 261], the IC50 at IDH2 R172K is 0.1 to 1 µM; at IDH2 R140Q, less than 0.1 µM; in test [1], less than 0.1 µM.
On to `O=C(Nc1nc(Nc2ccccc2)nc(-c2ccccc2)n1)OCC1CC1` [Compound 232, cyclopropylmethyl 4-phenyl-6-(phenylamino)-1,3,5-triazin-2-ylcarbamate], for which the IC50 at IDH2 R172K was 0.1 to 1 µM; at IDH2 R140Q, less than 0.1 µM; in test [1], 0.1 to 1 µM.
As for `CC(C)Nc1nc(Nc2ccc(S(C)(=O)=O)cc2)nc(-c2ccccc2)n1` [Compound 452, N2-isopropyl-N4-(4-(methylsulfonyl)phenyl)-6-phenyl-1,3,5-triazine-2,4-diamine], the IC50 on IDH2 R172K is greater than 10 µM; at IDH2 R140Q, 0.1 to 1 µM; in test [1] it was 1 to 10 µM.
As to `CC(C)Nc1nc(Nc2cc(F)cc(F)c2)nc(-c2cccc(C(C)(F)F)n2)n1` [Compound 583, 6-(6-(1,1-difluoroethyl)pyridin-2-yl)-N2-(3,5-difluorophenyl)-N4-isopropyl-1,3,5-triazine-2,4-diamine], the IC50 is less than 0.1 µM on IDH2 R172K, 0.1 to 1 µM at IDH2 R140Q and less than 0.1 µM in test [1].
As to `CNc1cccc(-c2nc(Nc3cc(F)cc(F)c3)nc(NC(C)C)n2)n1` [Compound 465], the IC50 on IDH2 R172K was less than 0.1 µM; at IDH2 R140Q, 0.1 to 1 µM; in test [1], less than 0.1 µM.
As for `CC(C)(C)Nc1nc(Nc2cc(F)cc(S(C)(=O)=O)c2)nc(-c2cccc(O)c2)n1` [Compound 646, 3-(4-(tert-butylamino)-6-((3-fluoro-5-(methylsulfonyl)phenyl)amino)-1,3,5-triazin-2-yl)phenol], the IC50 was less than 0.1 µM at IDH2 R172K, 0.1 to 1 µM on IDH2 R140Q and less than 0.1 µM in test [1].
As to `Fc1cc(Nc2nc(NC3COC3)nc(-c3ccccc3F)n2)ccn1` [Compound 628, 6-(2-Fluoro-phenyl)-N-(2-fluoro-pyridin-4-yl)-N′-oxetan-3-yl-[1,3,5]triazine-2,4-diamine], the IC50 was 0.1 to 1 µM on IDH2 R172K, less than 0.1 µM on IDH2 R140Q and less than 0.1 µM in test [1].
As to `CC(C)Nc1nc(Nc2ccccc2)nc(-c2cc(C(F)(F)F)ccn2)n1` [Compound 270, N^2-isopropyl-N^4-phenyl-6-(4-(trifluoromethyl)pyridin-2-yl)-1,3,5-triazine-2,4-diamine], the IC50 at IDH2 R172K is 0.1 to 1 µM; on IDH2 R140Q it was less than 0.1 µM; in test [1], 0.1 to 1 µM.
In the case of `Fc1ccccc1-c1nc(Nc2cncc(C(F)(F)F)c2)nc(NC2COC2)n1` [Compound 629, 6-(2-Fluoro-phenyl)-N-oxetan-3-yl-N′-(5-trifluoromethyl-pyridin-3-yl)-[1,3,5]triazine-2,4-diamine], the IC50 (at IDH2 R172K; at IDH2 R140Q; in test [1]) was less than 0.1 µM each time.
As to `CC(C)Nc1nc(Nc2ccc(F)nc2)nc(-c2nccc(C(F)(F)F)n2)n1` [Compound 535, N-(6-Fluoro-pyridin-3-yl)-N′-isopropyl-6-(4-trifluoromethyl-pyrimidin-2-yl)-[1,3,5]triazine-2,4-diamine], the IC50 was 0.1 to 1 µM on IDH2 R172K, 0.1 to 1 µM on IDH2 R140Q and less than 0.1 µM in test [1].
For the compound `CC(C)(C)Nc1nc(Nc2cc(F)cc(S(C)(=O)=O)c2)nc(-c2cccc(C(F)(F)F)n2)n1` [Compound 592, N-tert-Butyl-N′-(3-fluoro-5-methanesulfonyl-phenyl)-6-(6-trifluoromethyl-pyridin-2-yl)-[1,3,5]triazine-2,4-diamine], the IC50 at IDH2 R172K was 0.1 to 1 µM; at IDH2 R140Q, 0.1 to 1 µM; in test [1] it was less than 0.1 µM.
In the case of `CC(C)(C)Nc1nc(Nc2ccnc(C3(C#N)CC3)c2)nc(-c2cccc(C(F)(F)F)n2)n1` [Compound 608, 1-(4-((4-(tert-butylamino)-6-(6-(trifluoromethyl)pyridin-2-yl)-1,3,5-triazin-2-yl)amino)pyridin-2-yl)cyclopropanecarbonitrile], the values for the IC50 (at IDH2 R172K; on IDH2 R140Q; in test [1]) were less than 0.1 µM, 0.1 to 1 µM and less than 0.1 µM, respectively.
In the case of `CC(C)(O)CNc1nc(Nc2cncc(F)c2)nc(-c2ccccc2F)n1` [Compound 621, 1-(4-(2-fluorophenyl)-6-(5-fluoropyridin-3-ylamino)-1,3,5-triazin-2-ylamino)-2-methylpropan-2-ol], the IC50 at IDH2 R172K lay within 1 to 10 µM; on IDH2 R140Q, 0.1 to 1 µM; in test [1], 0.1 to 1 µM.
Regarding `COc1cccc(-c2nc(Nc3ccnc(C(F)(F)F)c3)nc(NC(C)C)n2)c1F` [Compound 631, 6-(2-Fluoro-3-methoxy-phenyl)-N-isopropyl-N′-(2-trifluoromethyl-pyridin-4-yl)-[1,3,5]triazine-2,4-diamine], the IC50 (at IDH2 R172K; at IDH2 R140Q; in test [1]) was less than 0.1 µM throughout.
In the case of `Fc1cc(F)cc(Nc2nc(NCC3CC3)nc(-c3cccc(C(F)(F)F)n3)n2)c1` [Compound 598, N2-(cyclopropylmethyl)-N4-(3,5-difluorophenyl)-6-(6-(trifluoromethyl)pyridin-2-yl)-1,3,5-triazine-2,4-diamine], the values for the IC50 (on IDH2 R172K; on IDH2 R140Q; in test [1]) were less than 0.1 µM, 0.1 to 1 µM and less than 0.1 µM, respectively.
With `CC(C)Nc1nc(Nc2cccc(S(C)(=O)=O)c2)nc(-c2c(F)cccc2F)n1` [Compound 466, 6-(2,6-difluorophenyl)-N2-isopropyl-N4-(3-(methylsulfonyl)phenyl)-1,3,5-triazine-2,4-diamine], the values for the IC50 (on IDH2 R172K; at IDH2 R140Q; in test [1]) were 0.1 to 1 µM, 0.1 to 1 µM and less than 0.1 µM, respectively.
